# System: healthy volunteers
# Assay: thorough QT study: RR interval and blood pressure (Table 19)
# Format: in vivo, human
compound,measurement,setting,value
"O=C(Nc1ccc(C[C@@H]2CC[C@H]([C@H](O)c3ccccc3)N2)cc1)[C@@H]1CCc2nccc(=O)n21 [Vibegron, (6S)—N-[4-[[(2S,5R)-5-[(R)-hydroxy(phenyl)methyl]pyrrolidin-2-yl]methyl]phenyl]-4-oxo-7,8-dihydro-6H-pyrrolo[1,2-a]pyrimidine-6-carboxamide]",Maximum Mean Placebo Corrected Change from Baseline Diastolic BP (90% CI),single dose 200 mg,2.42 mmHg
same,Maximum Mean Placebo Corrected Change from Baseline RR interval (90% CI),single dose 200 mg,-84.36 ms
same,Maximum Mean Placebo Corrected Change from Baseline Systolic BP (90% CI),single dose 200 mg,2.20 mmHg
same,Maximum Mean Placebo Corrected Change from Baseline Diastolic BP (90% CI),single dose 400 mg,3.99 mmHg
same,Maximum Mean Placebo Corrected Change from Baseline RR interval (90% CI),single dose 400 mg,-162.45 ms
same,Maximum Mean Placebo Corrected Change from Baseline Systolic BP (90% CI),single dose 400 mg,3.97 mmHg

# Source: patent US12357636B2 (Urovant Sciences GmbH, priority 2018, dated 2025)
